Key:
[1] = system: perception of the sweet taste of an aqueous solution of sweetener in humans; assay: Two-alternative forced choice "sip and spit" method (2AFC); format: in vivo
Procedure: The taste test panelists used in the Examples 1-3 were selected using a sensory acuity screening program. Candidate taste panelists were recruited, with prescreening and personal interviews, and were assessed and for their ability to detect, recognize and differentiate basic taste attributes or mixtures thereof as part of a standardized acuity test. This included basic tastes of sweet, sour, salty, bitter and umami, as well as having the capacity to focus on specific aspects of sensory character such as ranking the various tastes perceived and identifying the basic tastes presented at threshold levels.
The effect of the test compounds on the perception of the sweet taste of an aqueous solution of sweetener in humans was evaluated using a two-alternative forced choice “sip and spit” method (2AFC).
The aqueous sweetener solutions were prepared by adding, fructose, sucrose or glucose (by weight), to water to achieve the desired concentration.
Compounds were first prepared as a 500-fold concentrated stock solution in 100% ethanol. These concentrated stocks were then added to the aqueous sweetener solutions to result in a final ethanol concentration of 0.2%. The control (positive and negative) samples were also normalized to 0.2% ethanol. This level of ethanol was not seen to contribute any perceived sweetness.
The 2AFC test used for compound evaluation was a blind and randomized test where taste panelists (n=15) evaluate a pair of sweetener solutions at a time one sample contains aqueous sweetener solution plus compound (i.e. test) while the other contains aqueous sweetener solution at higher concentration without compound (i.e. positive control). Each test sample was compared against a positive control. For example, if the test sample contained 1× sweetener concentration with compound (e.g. 5% sucrose with compound), the positive control sample contained a 1.1× sweetener concentration (e.g. 5.5% sucrose without compound).
Panelists were instructed not to eat or drink (except water) for at least 1 h before the test. During the test, panelists were instructed to sip each sample, swirl it around their mouth and then expectorate. After tasting each sample in the pair, panelists were instructed to record the sample that is “sweeter” in taste. Panelists cleansed their palates by rinsing with water, eating a cracker and waiting for an interval of about 5 minutes. Each pair was tasted twice. All samples were tasted at ambient temperatures. Data were analyzed using binomial probabilities.
Approximate levels of sweetness enhancement in column 5 of Table 2 were calculated as follows:
Approximate levels of sweetness enhancement=Sweetener concentration of positive control surpassed by the test sample, divided by sweetener concentration for compound-containing sample (e.g. 1.15×=5.75% sucrose/5% sucrose).

[2] = system: perception of the sweet taste in humans; assay: Trained descriptive analysis (DA) panel, sweet attribute; format: in vivo; details: for compound effects beyond the additive effect of inherent sweetness: 4% fructose and 8% sucrose; for DA Panel Average Sweetness Intensity Score (on 15 cm scale): inherent sweetness, 35 ppm compound plus solubilizing agent, 1 cm = 1% sucrose
Procedure: The effect of the test compounds on the perception of the sweet taste in an aqueous environment, in the absence or presence of carbohydrate sweeteners, was evaluated using a descriptive analysis methodology with a group of trained panelists, as follows.
Candidate panelists were recruited, with prescreening and personal interviews, and were assessed for their ability to detect, recognize and differentiate basic taste attributes or mixtures thereof as part of a standardized acuity test. These candidate panelists were also assessed for their innate ability to identify flavors, and to rank on intensity scales. Other senses such as smell and vision were also included as part of the assessment. Candidates also were screened for their ability to use the language to describe and articulate ideas.
Selected candidates proceeded to training as a group in three phases: (1) Lexicon development, (2) Concept alignment, and (3) Scaling descriptors. During lexicon development, panelists evaluated products appropriate for use in the study to generate and align on terms describing the flavor, taste, aromatic, trigeminal, and temporal attributes. During concept alignment, the panel evaluated the products mentioned above to clarify and confirm the attributes that were generated during lexicon development using reference standards that appropriately define each attribute; these are either physical references (e.g. sucrose solutions) or verbal descriptions (e.g. overall flavor). Product terms and concepts were validated during this portion of the study.
In the last phase, scaling descriptors, the panel participated in a series of exercises focused on ordering and ranking samples according to relative attribute intensity, measuring attribute intensity using a defined length of line scale. Whenever possible, different levels or concentration of references were used as anchors to facilitate use of the scale. Panelists were provided with blinded references at this stage to evaluate their understanding and perception of the scale.
The panel used in this example was trained to reference sweet attributes in an absolute manner, such that a particular concentration of sweetener is always measured by the panelists at the same point using a 15 cm line scale where each cm represents a 1% increase in sucrose to cover the range of 0% to 15% sucrose. For the rest of the attributes, the panel was trained using a hybrid approach between descriptive analysis methods (e.g. quantitative descriptive analysis, the sensory spectrum, etc.) well-known to those skilled in the art.
The trained panel was then used for a descriptive analysis assessment for Compounds 1, 2 and 3 in aqueous solutions at pH 3 and pH 7. Each of the three compounds was tested at 35 ppm in sucrose and fructose sweeteners. In addition, Compounds 1, 2 and 3 were also examined in water at pH 3 and pH 7 to assess for any inherent sweetness.
The aqueous sweetener solutions were prepared by adding, fructose or sucrose (by weight), to water to achieve the desired concentration. Aqueous sucrose solutions at pH 3 were buffered using a final concentration of 0.096% Citric Acid plus 0.036% Sodium Citrate while aqueous fructose solutions at pH 3 were buffered using a final concentration of 0.06% Citric Acid and 0.0225% Sodium Citrate.
Compounds were first prepared as a […] concentrated stock solution in 100% ethanol. These concentrated stocks were then added to the aqueous sweetener solutions to result in a final ethanol concentration of 0.2%. In addition to compounds, a solubilizing agent at a final concentration of 0.02% was added to the aqueous sweetener solutions. Control samples were also balanced with 0.2% ethanol and in certain cases 0.02% solubilizing agent.
Both control (aqueous sweetener solutions without compound) and variant (aqueous sweetener solutions with compound) samples were blinded and randomized (by sweetener and pH blocks). […]

[3] = system: tasters; details: DuBois, et al., J. Med. Chem., 1981; cited from earlier work

In the case of `COc1ccc(C2CC(=O)c3c(O)cccc3O2)cc1O` (racemic) [Compound 1, 5-hydroxy-2-(3-hydroxy-4-methoxyphenyl)chroman-4-one], the “Fold increase in perceived sweetness” value ([1]; test sample 4% fructose, compound 25 ppm, positive control conc. / test sample conc.) was greater than 1.20X, the “Sweetener Concentration of positive control surpassed by test sample” value (“Sweetener Concentration” below) ([1]; test sample 4% fructose, positive control fructose, compound 25 ppm) was greater than 4.8% and the “Sweetener Concentration” value ([1]; test sample 5% sucrose, positive control sucrose, compound 15 ppm) was greater than 5.75%. For the same molecule, the “Sweetener Concentration” value ([1]; test sample 6.5% glucose, positive control glucose, compound 10, 25 ppm) was greater than 7.48%, the “compound effects beyond the additive effect of inherent sweetness” value ([2]; pH 3, 35 ppm, Table 7 vs Table 5) was “super-additive effects” and the “compound effects beyond the additive effect of inherent sweetness” value ([2]; pH 7, 35 ppm, Table 6 vs Table 4) was “super-additive effects”. For the same molecule, the “perceived sweetness compared to control sweetener solutions (FIG. 2)” value ([2]; aqueous fructose and sucrose solutions at pH 3, 35 ppm, ** p<0.01) was “significant increase in perceived sweetness”, the “perceived sweetness compared to control sweetener solutions (FIG. 1)” value ([2]; aqueous fructose and sucrose solutions at pH 7, 35 ppm, ** p<0.01) was “significant increase in perceived sweetness” and the “DA Panel Average Sweetness Intensity Score (on 15 cm scale)” value ([2]; citric acid-citrate solution pH 3) was “do not show further significant increase in perceived inherent sweetness”. The “DA Panel Average Sweetness Intensity Score (on 15 cm scale)” value ([2]; water pH 7) was “further increase in perceived sweetness” and the reported sweet flavor [3] was “sweet flavor”.

Source: patent publication US20150050410A1, “COMPOUNDS, COMPOSITIONS, AND METHODS FOR MODULATING SWEET TASTE” (Chromocell Corporation, priority 2013, published 2015)
